Results published in PMC11869342, “Design and synthesis of novel HDAC6 inhibitor dimer as HDAC6 degrader for cancer treatment by palladium catalysed dimerisation” (Journal of Enzyme Inhibition and Medicinal Chemistry, 2025).

Legend:
PC-3 cells = assay: Sulforhodamine B (SRB) assay, PC-3; type: cell-based; conditions: Homo sapiens; PC-3 cells, SRB, 48 h; read-out: GI50 con. ± SEM PC-3
Protocol: (§1) The A549 and PC-3 human lung and prostate cancer cell lines were acquired from the American Type Culture Collection (Rockville, MD). […] The cultures were kept in a 37 °C incubator with 5% CO2. When the adherent cultures reached 80% confluence, they were passaged using 0.05% trypsin-EDTA. PC-3 and A549 cells were seeded into 96-well plates in RPMI medium with 5% (v/v) foetal bovine serum for 24 h. Cells in partial wells were fixed with 10% trichloroacetic acid (TCA) to represent the initial time of compound treatment. The cells were treated with or without the indicated compound for 48 h and then were fixed with 10% TCA. After the washout with ddH2O and air-dried, SRB at 0.4% (w/v) in 1% acetic acid was added for staining. Unbound SRB was washed with 1% acetic acid and SRB-bounded cells were solubilised with 10 mM Tris base. The absorbance was read at a wavelength of 515 nm for the determination of cell growth.

HDAC6 = target: T1, HDAC6 (Homo sapiens, UniProt Q9UBN7); assay: HDAC enzyme activity assay (Reaction Biology), HDAC6; type: biochemical; design: Full-length recombinant hHDAC 6 was expressed in a baculovirus expression system in SF9 cells; purchased Reaction Biology Corporation (Malvern, PA); host or cells: baculovirus / SF9 insect cells; conditions: full-length recombinant hHDAC 6, RHKKAc substrate 50 μM, 2 h at 30 °C
T1 sequence (Q9UBN7 1-1215): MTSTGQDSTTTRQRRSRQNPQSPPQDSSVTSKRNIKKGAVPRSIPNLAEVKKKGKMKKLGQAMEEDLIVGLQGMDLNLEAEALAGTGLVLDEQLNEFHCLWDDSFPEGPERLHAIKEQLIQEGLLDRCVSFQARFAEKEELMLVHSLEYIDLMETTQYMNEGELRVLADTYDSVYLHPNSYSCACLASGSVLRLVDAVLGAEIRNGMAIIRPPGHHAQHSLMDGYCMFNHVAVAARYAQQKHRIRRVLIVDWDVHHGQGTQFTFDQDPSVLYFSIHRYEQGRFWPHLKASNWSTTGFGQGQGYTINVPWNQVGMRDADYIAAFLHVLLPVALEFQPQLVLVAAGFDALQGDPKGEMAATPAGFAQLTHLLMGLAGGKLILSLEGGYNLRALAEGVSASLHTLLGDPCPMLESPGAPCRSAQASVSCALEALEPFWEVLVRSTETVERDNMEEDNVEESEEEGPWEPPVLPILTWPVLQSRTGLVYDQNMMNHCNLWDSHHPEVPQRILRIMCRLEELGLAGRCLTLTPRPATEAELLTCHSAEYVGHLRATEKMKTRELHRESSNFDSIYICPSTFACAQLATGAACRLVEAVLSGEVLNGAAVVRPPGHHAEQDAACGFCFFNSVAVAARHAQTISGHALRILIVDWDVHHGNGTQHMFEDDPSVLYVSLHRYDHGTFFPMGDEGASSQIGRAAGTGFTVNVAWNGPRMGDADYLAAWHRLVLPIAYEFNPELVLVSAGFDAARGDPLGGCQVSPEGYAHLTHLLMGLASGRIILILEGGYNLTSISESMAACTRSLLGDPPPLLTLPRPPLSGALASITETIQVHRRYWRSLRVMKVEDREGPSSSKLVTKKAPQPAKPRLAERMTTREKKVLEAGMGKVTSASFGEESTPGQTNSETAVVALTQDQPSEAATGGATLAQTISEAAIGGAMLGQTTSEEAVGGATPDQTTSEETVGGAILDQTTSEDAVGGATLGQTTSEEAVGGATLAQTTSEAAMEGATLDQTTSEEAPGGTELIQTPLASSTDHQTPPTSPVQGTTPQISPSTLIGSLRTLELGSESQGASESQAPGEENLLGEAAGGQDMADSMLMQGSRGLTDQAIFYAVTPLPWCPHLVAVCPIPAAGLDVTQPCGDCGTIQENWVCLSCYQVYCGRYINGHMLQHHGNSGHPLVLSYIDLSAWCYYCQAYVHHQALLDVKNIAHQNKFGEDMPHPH
Protocol: HDAC inhibition assays were performed by Reaction Biology Corporation (Malvern, PA). Full-length recombinant hHDAC 6 was expressed in a baculovirus expression system in SF9 cells. […] The reaction was stopped after 2 h at 30 °C . Trichostatin A was used as an internal control.

A549 cells = assay: Sulforhodamine B (SRB) assay, A549; type: cell-based; conditions: Homo sapiens; A549 cells, SRB, 48 h; read-out: GI50 con. ± SEM A549
Protocol: as §1

[1] = Solubility as observed when conducting assays; type: physicochemical
Ac-α-tubulin = assay: Western blotting of Ac-α-tubulin in PC-3 cells; type: cell-based, human; conditions: 30 μM, 24 h
Protocol: Figure 3. Western blotting analysis of (a) HDAC6 protein in PC-3 cells treated with various dimer compounds at 30 μM for 24 h, (b) Ac-α-tubulin protein in PC-3 cells treated with various dimer compounds at 30 μM for 24 h, (c) LC-3 I, LC-3 II, and p62 proteins in PC-3 cells treated with various dimer compounds at 30 μM for 24 h, (d) PARP-1 and Caspase-3 proteins in PC-3 cells treated with various dimer compounds at 30 μM for 24 h, (e) p-BUBR1^S670 and p-BUBR1^T680 proteins in PC-3 cells treated with various dimer compounds at 30 μM for 24 h. Glyceraldehyde 3-phosphate dehydrogenase (GAPDH) was used as the loading control.
After compound treatment, the cells were harvested and centrifuged. […] The supernatants quantified by Bio-Rad protein assay kit (Bio-Rad Laboratories, Hercules, CA) were mixed with sample buffer (0.3 M Tris pH6.8, 10% SDS, 50% glycerol, 10% β-mercaptoethanol, and 0.02% bromophenol blue) and heated at 95 °C for 10 min. The protein (30 µg) was separated by electrophoresis in 8% or 12% SDS-PAGE, transferred to PVDF membranes, and detected with specific antibodies (1:1000 dilution for the first and 1:7000 for the second antibodies). The immunoreactive proteins were detected with an enhanced chemiluminescence detection kit (Amersham, Buckinghamshire, UK) and the images were captured by ChemiDoc™ MP System (Bio-Rad Laboratories, Hercules, CA).

- GI50 (PC-3 cells): > 30 µM
- IC50 (HDAC6): > 10 µM
- GI50 (A549 cells): > 30 µM
- solubility observed when conducting assays [1]: poor solubilities
Compound: O=C(NO)c1ccc(Cn2c(=O)n(CCc3ccc(NCCOCCOCCOCCNc4ccc(CCn5c(=O)c6ccccc6n(Cc6ccc(C(=O)NO)cc6)c5=O)cc4)cc3)c(=O)c3ccccc32)cc1 [Compound 6a, 4-({3-[2-(4-{2-[2–(2-{2-[4-(2-{1-[(4-Hydroxamophenyl)methyl]-2,4-dioxoquinazolin-3-yl}ethyl)phenylamino]ethoxy}ethoxy)ethoxy]ethylamino}phenyl)ethyl]-2,4-dioxoquinazolin-1-yl}methyl)benzohydroxamic acid]
- Ac-α-tubulin level (Western blot) (Ac-α-tubulin): unenhanced acetylated α-tubulin
